Test results reported in paper PMC13607727 (International Journal of Molecular Sciences, 2026).
Structures can show the parent of a compound that is named as a salt.

What was measured:
Assay type in all cases: cell-based, SARS-CoV-2; human
2019-nCoV S-RBD/hACE2 = 2019-nCoV S-RBD/hACE2 (Severe acute respiratory syndrome coronavirus 2, UniProt P0DTC2)
[1] = biological target: Delta (B.1.617.2) S-RBD/hACE2 (Severe acute respiratory syndrome coronavirus 2, UniProt P0DTC2, L452R/T478K)
[2] = biological target: Omicron (BA.5) S-RBD/hACE2 (Severe acute respiratory syndrome coronavirus 2, UniProt P0DTC2, D405N/E484A/F486V/G339D/K417N/L452R/N440K/N501Y/Q498R/R408S/S371F/S373P/S375F/S477N/T376A/T478K/Y505H)

SMILES | Effect on S-RBD/hACE2 colocalisation (2019-nCoV S-RBD/hACE2) | Effect on S-RBD/hACE2 colocalisation [1] | Effect on S-RBD/hACE2 colocalisation [2]
CC(OC(=O)OC1CCCCC1)OC(=O)C1=C(CSc2nnnn2CC[NH+](C)C)CSC2C(NC(=O)Cc3csc(N)n3)C(=O)N12 (stereo not drawn) [CTM-HCl, cefotiam hexetil hydrochloride] | showed similar effects against all tested strains | showed similar effects against all tested strains | showed similar effects against all tested strains
CCCCCCCCC=CCCCCCCCC(=O)OCC(C[N+](C)(C)C)OC(=O)CCCCCCCC=CCCCCCCCC (stereo not drawn) [DOTAP, DOTAP chloride] | reduced colocalisation to all three S-RBD variants in a concentration-dependent manner | reduced colocalisation to all three S-RBD variants in a concentration-dependent manner | reduced colocalisation to all three S-RBD variants in a concentration-dependent manner
